Assay results: ChEMBL document CHEMBL6109139, “Rational Design of the First Dual Agonist at Trace Amine-Associated Receptor 1 and 5-HT2C Receptors Based on Binding Pocket Similarity for the Treatment of Schizophrenia and Alzheimer's Disease-Related Psychosis” (J Med Chem, 2025)
Activity calls are given as the source filed them. No cut-off for these calls is given here.

Assays:
[1] = target: Cannabinoid receptor 1 (Homo sapiens) (UniProt P21554); test: Binding affinity to CB1 (unknown origin) at 10 uM by radioligand binding assay relative to control
[2] = Cardiotoxicity in conscious cynomolgus monkey assessed as good general health at 3.125 to 12.5 mg/kg, IG; type: toxicity, organism-based, Macaca fascicularis; conditions: in vivo, po, dose 3.125-12.5 mg/kg
Mus musculus = test: Antipsychotic activity against DOI-induced head-twitch response in mouse assessed as reduction in head-twitch response at 10 mg/kg, IG measured for 30 mins relative to control; type: functional; design: scale not given: the % may be the effect or the level left; conditions: 0.5 h
[3] = target: Prostaglandin G/H synthase 2 (Homo sapiens) (UniProt P35354); test: Binding affinity to COX2 (unknown origin) at 10 uM by radioligand binding assay relative to control
D(2) dopamine receptor = D(2) dopamine receptor (Homo sapiens, UniProt P14416); test: Antagonist activity at human D2S receptor expressed in Flp-In-CHO cells; type: cell-based
[4] = Toxicity in female Sprague-Dawley rat assessed as irritability at 7.5 mg/kg, po administered once daily for 4 weeks; type: organism-based; conditions: in vivo, 672 h
[5] = Toxicity in female Sprague-Dawley rat assessed as corneal epithelial degeneration at 2.5 to 7.5 mg/kg, po administered once daily for 4 weeks and measured after 4 weeks; type: organism-based; conditions: in vivo, 1344 h, dose 2.5-7.5 mg/kg, time 8 weeks
[6] = target: 5-hydroxytryptamine receptor 2C (Mus musculus) (UniProt P34968); test: Agonist activity at mouse 5-HT2CR by measuring maximum efficacy relative to control; type: functional; conditions: filed as agonist
[7] = target: Histamine H1 receptor (Homo sapiens) (UniProt P35367); test: Binding affinity to H1 receptor (unknown origin) at 10 uM by radioligand binding assay relative to control
[8] = Toxicity in female Beagle dog assessed as change in prolactin at 0.75 to 2.5 mg/kg, IG administered once daily for 4 weeks and measured after 4 weeks; type: organism-based, Canis lupus familiaris; conditions: in vivo, po, 1344 h, dose 0.75-2.5 mg/kg, time 8 weeks
[9] = Ratio of drug concentration in male Sprague-Dawley rat brain to plasma at 5 mg/kg, IG measured after 6 hrs by LC-MS/MS analysis; type: ADME, organism-based; conditions: brain and plasma, po, read-out: BPR
[10] = target: Glutamate [NMDA] receptor (Homo sapiens) (UniProt Q05586+Q12879+Q13224+O15399+O60391+Q14957+Q8TCU5); test: Binding affinity to NMDA receptor (unknown origin) at 10 uM by radioligand binding assay relative to control; type: protein-complex assay
Cytochrome P450 2B6 = Cytochrome P450 2B6 (Homo sapiens, UniProt P20813); test: Inhibition of CYP2B6 in human liver microsomes in presence of NADPH by LC-MS/MS analysis; type: ADME, Microsome
[11] = system: 5-hydroxytryptamine receptor 2C (Homo sapiens), P28335 [W324A]; test: Agonist activity at 5HT2CR W324A mutant (unknown origin) expressed in HEK293 cells assessed as IP1 level by HTRF IP1 competitive binding assay; type: cell-based
[12] = Toxicity in Sprague-Dawley rat assessed as dyskinesia 2.5 to 7.5 mg/kg, po administered once daily for 4 weeks; type: organism-based; conditions: in vivo, 672 h, dose 2.5-7.5 mg/kg
[13] = Toxicity in female Sprague-Dawley rat assessed as irritability at 2.5 mg/kg, po administered once daily for 4 weeks; type: organism-based; conditions: in vivo, 672 h
[14] = Cardiotoxicity in conscious cynomolgus monkey assessed as decrease in body temperature at 3.125 to 12.5 mg/kg, IG by digital thermometer analysis; type: toxicity, organism-based, Macaca fascicularis; conditions: in vivo, po, dose 3.125-12.5 mg/kg
[15] = Toxicity in male Beagle dog assessed as change in urinalysis at 0.75 to 2.5 mg/kg, IG administered once daily for 4 weeks and measured after 4 weeks; type: organism-based, Canis lupus familiaris; conditions: in vivo, po, 1344 h, dose 0.75-2.5 mg/kg, time 8 weeks
[16] = Toxicity in female Sprague-Dawley rat assessed as slow respiration at 7.5 mg/kg, po administered once daily for 4 weeks and measured after 4 weeks; type: organism-based; conditions: in vivo, 1344 h, time 8 weeks
[17] = Toxicity in male Sprague-Dawley rat assessed as suppression of body weight gain at 7.5 mg/kg, po administered once daily for 4 weeks and measured after 4 weeks; type: organism-based; conditions: in vivo, 1344 h, time 8 weeks
[18] = Toxicity in male Beagle dog assessed as change in gross necropsy at 0.75 to 2.5 mg/kg, IG administered once daily for 4 weeks and measured after 4 weeks; type: organism-based, Canis lupus familiaris; conditions: in vivo, po, 1344 h, dose 0.75-2.5 mg/kg, time 8 weeks
[19] = Toxicity in Sprague-Dawley rat assessed as good general health at 2.5 to 7.5 mg/kg, po administered once daily for 4 weeks; type: organism-based; conditions: in vivo, 672 h, dose 2.5-7.5 mg/kg
[20] = Toxicity in male Sprague-Dawley rat assessed as suppression of food consumption at 7.5 mg/kg, po administered once daily for 4 weeks and measured after 4 weeks; type: organism-based; conditions: in vivo, 1344 h, time 8 weeks
[21] = target: Sodium-dependent serotonin transporter (Homo sapiens) (UniProt P31645); test: Binding affinity to 5-HTT (unknown origin) at 10 uM by radioligand binding assay relative to control
[22] = Toxicity in Sprague-Dawley rat assessed as normal spontaneous movement at 2.5 to 7.5 mg/kg, po administered once daily for 4 weeks; type: organism-based; conditions: in vivo, 672 h, dose 2.5-7.5 mg/kg
[23] = Toxicity in female Beagle dog assessed as change in bone marrow smears at 0.75 to 2.5 mg/kg, IG administered once daily for 4 weeks and measured after 4 weeks; type: organism-based, Canis lupus familiaris; conditions: in vivo, po, 1344 h, dose 0.75-2.5 mg/kg, time 8 weeks
[24] = Toxicity in male Beagle dog assessed as change in organ weight at 0.75 to 2.5 mg/kg, IG administered once daily for 4 weeks and measured after 4 weeks; type: organism-based, Canis lupus familiaris; conditions: in vivo, po, 1344 h, dose 0.75-2.5 mg/kg, time 8 weeks
[25] = Toxicity in male Beagle dog assessed as minimal decrease activity at 2.5 mg/kg, IG administered once daily for 4 weeks and measured after 4 weeks; type: organism-based, Canis lupus familiaris; conditions: in vivo, po, 1344 h, time 8 weeks
Homo sapiens = organism: Homo sapiens; test: Binding affinity to CCKa (unknown origin) at 10 uM by radioligand binding assay relative to control
[26] = target: cGMP-inhibited 3',5'-cyclic phosphodiesterase 3A (Homo sapiens) (UniProt Q14432); test: Binding affinity to PDE3A receptor (unknown origin) at 10 uM by radioligand binding assay relative to control
Cytochrome P450 1A2 = Cytochrome P450 1A2 (Homo sapiens, UniProt P05177); test: Inhibition of CYP1A2 in human liver microsomes in presence of NADPH by LC-MS/MS analysis; type: ADME, Microsome
[27] = Toxicity in female Sprague-Dawley rat assessed as irritability at 7.5 mg/kg, po administered once daily for 4 weeks and measured after 4 weeks; type: organism-based; conditions: in vivo, 1344 h, time 8 weeks
[28] = target: Trace amine-associated receptor 1 (Mus musculus, UniProt Q923Y8); test: Agonist activity at mouse TAAR1; type: functional
[29] = Toxicity in male Beagle dog assessed as somnolence at 2.5 mg/kg, IG administered once daily for 4 weeks and measured after 4 weeks; type: organism-based, Canis lupus familiaris; conditions: in vivo, po, 1344 h, time 8 weeks
[30] = Toxicity in female Sprague-Dawley rat assessed as change in hematology at 2.5 to 7.5 mg/kg, po administered once daily for 4 weeks and measured after 4 weeks; type: organism-based; conditions: in vivo, 1344 h, dose 2.5-7.5 mg/kg, time 8 weeks
[31] = Mutagenicity in Salmonella typhimurium TA1535 by Ames test; type: toxicity; conditions: salmonella enterica subsp. enterica serovar typhimurium
[32] = Toxicity in Sprague-Dawley rat assessed as stereotypy 2.5 to 7.5 mg/kg, po administered once daily for 4 weeks; type: organism-based; conditions: in vivo, 672 h, dose 2.5-7.5 mg/kg
[33] = Toxicity in male Beagle dog assessed as change in clinical chemistry at 0.75 to 2.5 mg/kg, IG administered once daily for 4 weeks and measured after 4 weeks; type: organism-based, Canis lupus familiaris; conditions: in vivo, po, 1344 h, dose 0.75-2.5 mg/kg, time 8 weeks

Cannabinoid receptor 1 (Homo sapiens), sequence (P21554 whole entry): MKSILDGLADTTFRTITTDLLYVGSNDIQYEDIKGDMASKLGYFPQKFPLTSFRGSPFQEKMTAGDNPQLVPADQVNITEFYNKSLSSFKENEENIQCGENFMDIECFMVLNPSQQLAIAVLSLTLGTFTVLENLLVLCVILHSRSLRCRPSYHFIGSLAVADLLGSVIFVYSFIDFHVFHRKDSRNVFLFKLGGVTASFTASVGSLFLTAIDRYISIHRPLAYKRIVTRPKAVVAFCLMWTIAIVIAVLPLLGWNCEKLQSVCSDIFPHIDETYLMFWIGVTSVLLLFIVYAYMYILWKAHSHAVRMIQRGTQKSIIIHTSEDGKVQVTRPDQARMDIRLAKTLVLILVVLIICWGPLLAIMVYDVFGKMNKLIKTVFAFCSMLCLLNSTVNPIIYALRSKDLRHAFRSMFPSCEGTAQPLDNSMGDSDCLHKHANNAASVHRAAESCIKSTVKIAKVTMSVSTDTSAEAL
D(2) dopamine receptor, sequence (P14416 whole entry): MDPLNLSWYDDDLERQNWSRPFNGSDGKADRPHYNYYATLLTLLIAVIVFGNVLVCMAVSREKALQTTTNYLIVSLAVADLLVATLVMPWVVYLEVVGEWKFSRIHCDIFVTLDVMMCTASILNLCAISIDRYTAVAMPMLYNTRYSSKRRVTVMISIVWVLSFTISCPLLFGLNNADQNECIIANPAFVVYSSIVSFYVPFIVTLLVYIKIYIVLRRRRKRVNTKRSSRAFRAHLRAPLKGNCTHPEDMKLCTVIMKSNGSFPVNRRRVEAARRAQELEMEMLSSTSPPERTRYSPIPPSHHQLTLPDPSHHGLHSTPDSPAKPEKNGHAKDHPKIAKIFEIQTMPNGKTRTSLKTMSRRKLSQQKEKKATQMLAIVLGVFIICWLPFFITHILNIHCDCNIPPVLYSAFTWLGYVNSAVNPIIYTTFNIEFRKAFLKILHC
Histamine H1 receptor (Homo sapiens), sequence (P35367 whole entry): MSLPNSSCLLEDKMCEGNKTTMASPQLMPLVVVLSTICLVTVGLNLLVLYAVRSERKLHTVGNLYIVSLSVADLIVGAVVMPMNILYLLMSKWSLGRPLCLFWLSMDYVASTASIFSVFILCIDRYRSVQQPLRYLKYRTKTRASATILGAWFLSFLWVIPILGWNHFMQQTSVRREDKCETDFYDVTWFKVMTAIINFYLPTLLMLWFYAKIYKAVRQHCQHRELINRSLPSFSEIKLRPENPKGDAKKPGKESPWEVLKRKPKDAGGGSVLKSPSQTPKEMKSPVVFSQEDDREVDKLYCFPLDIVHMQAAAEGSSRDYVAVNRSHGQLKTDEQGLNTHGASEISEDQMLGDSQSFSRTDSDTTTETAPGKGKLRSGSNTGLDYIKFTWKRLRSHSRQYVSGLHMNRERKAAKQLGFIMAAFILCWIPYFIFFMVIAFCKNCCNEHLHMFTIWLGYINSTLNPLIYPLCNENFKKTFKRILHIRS
Trace amine-associated receptor 1, sequence (Q923Y8 whole entry): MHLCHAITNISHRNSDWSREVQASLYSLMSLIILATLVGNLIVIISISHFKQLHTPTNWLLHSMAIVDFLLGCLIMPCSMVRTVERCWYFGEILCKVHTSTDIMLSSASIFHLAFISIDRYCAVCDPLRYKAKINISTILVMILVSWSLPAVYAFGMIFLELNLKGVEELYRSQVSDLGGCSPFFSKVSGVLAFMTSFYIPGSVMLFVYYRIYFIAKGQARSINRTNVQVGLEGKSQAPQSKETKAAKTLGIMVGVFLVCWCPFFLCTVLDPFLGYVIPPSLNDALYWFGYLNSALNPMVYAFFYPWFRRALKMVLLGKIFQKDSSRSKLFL
Cytochrome P450 1A2, sequence (P05177 whole entry): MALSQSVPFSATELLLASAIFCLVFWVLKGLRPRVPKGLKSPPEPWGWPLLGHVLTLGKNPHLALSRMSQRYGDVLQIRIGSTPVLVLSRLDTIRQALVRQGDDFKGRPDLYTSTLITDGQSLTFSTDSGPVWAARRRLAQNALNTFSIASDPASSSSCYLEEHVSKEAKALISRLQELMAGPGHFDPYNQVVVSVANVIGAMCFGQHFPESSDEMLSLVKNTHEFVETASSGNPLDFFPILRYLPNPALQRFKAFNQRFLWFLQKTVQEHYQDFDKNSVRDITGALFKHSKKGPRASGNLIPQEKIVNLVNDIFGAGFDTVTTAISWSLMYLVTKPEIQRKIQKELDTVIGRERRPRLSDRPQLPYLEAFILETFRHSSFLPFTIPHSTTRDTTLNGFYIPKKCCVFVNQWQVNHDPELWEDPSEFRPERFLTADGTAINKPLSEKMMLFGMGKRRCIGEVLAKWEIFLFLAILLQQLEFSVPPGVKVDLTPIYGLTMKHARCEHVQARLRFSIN
Sodium-dependent serotonin transporter (Homo sapiens), sequence (P31645 whole entry, looked up): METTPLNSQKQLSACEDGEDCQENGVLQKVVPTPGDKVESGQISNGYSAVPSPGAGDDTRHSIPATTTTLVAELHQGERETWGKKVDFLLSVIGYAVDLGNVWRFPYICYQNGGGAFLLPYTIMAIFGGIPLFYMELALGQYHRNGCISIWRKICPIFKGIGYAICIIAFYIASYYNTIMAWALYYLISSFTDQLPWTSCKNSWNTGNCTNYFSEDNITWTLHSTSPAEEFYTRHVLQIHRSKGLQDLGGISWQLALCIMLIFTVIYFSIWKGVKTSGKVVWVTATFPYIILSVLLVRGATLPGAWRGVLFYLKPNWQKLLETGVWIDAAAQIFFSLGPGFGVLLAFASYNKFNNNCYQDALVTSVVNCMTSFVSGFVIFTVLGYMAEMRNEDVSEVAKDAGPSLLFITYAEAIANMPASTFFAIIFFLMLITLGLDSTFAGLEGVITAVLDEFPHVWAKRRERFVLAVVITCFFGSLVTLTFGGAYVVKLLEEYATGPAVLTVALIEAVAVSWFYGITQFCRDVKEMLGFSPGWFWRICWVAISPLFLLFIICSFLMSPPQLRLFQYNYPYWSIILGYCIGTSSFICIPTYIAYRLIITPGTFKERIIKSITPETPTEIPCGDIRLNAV
5-hydroxytryptamine receptor 2C (Mus musculus), sequence (P34968 whole entry): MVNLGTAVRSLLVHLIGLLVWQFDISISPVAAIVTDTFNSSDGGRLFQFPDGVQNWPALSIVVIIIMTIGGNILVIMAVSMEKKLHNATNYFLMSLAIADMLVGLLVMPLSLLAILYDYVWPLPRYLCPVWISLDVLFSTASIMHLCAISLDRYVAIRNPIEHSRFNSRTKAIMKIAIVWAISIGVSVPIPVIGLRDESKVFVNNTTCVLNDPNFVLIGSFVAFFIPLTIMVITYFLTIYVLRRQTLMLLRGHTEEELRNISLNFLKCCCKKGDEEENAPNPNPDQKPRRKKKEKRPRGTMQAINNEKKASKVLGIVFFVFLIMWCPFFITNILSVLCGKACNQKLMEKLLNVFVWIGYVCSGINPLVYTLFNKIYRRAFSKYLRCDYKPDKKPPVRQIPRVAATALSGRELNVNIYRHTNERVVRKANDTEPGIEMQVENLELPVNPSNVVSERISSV
5-hydroxytryptamine receptor 2C (Homo sapiens), P28335 [W324A], sequence (P28335 whole entry W324A): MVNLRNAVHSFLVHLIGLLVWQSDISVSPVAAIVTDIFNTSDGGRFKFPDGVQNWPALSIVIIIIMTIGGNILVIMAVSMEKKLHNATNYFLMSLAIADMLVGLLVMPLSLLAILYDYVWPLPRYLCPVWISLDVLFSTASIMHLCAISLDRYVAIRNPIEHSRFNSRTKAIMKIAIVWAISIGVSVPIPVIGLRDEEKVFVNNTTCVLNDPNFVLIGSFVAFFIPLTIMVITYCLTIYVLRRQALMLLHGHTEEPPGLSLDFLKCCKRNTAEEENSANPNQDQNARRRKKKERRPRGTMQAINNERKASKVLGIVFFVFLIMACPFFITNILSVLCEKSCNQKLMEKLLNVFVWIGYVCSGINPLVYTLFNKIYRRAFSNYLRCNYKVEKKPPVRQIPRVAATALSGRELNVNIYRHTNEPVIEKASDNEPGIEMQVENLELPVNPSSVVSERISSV
cGMP-inhibited 3',5'-cyclic phosphodiesterase 3A (Homo sapiens), sequence (Q14432 whole entry): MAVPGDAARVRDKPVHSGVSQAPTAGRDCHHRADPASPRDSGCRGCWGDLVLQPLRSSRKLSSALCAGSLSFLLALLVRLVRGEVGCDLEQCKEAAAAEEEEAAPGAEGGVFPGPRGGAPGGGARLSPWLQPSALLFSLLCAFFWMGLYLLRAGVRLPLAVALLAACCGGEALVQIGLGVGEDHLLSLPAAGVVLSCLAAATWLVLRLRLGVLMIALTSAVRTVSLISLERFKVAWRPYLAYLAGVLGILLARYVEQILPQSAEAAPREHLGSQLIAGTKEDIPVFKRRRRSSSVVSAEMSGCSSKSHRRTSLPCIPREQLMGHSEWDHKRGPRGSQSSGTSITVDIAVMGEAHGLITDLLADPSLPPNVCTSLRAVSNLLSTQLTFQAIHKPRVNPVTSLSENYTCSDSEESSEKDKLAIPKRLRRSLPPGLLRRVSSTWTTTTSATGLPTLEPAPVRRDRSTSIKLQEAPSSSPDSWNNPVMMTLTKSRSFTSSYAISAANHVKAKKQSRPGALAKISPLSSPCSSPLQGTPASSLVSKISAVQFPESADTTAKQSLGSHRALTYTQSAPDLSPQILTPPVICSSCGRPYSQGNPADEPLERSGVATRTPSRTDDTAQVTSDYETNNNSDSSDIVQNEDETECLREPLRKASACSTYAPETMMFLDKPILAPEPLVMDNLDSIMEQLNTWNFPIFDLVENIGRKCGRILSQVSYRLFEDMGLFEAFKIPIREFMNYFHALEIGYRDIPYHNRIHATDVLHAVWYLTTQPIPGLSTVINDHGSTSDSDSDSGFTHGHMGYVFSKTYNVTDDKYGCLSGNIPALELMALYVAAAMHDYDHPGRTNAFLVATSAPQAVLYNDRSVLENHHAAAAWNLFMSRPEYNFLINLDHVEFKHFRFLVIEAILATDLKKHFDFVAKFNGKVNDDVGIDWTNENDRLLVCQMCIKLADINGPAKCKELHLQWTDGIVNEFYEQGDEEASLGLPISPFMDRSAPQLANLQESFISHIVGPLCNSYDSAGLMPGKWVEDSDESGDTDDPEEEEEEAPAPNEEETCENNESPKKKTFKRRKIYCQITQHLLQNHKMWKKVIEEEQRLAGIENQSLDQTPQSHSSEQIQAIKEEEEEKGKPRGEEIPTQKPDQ

In the case of c1cc2c(s1)[C@@H]1CNCCN1CC2, the Activity [1] is reported as 2.45%, the Activity [2] is reported as “Non-toxic” and the Activity (Mus musculus) is reported as 100%. For the same compound, the Activity [3] was 48.5%, the IC50 (D(2) dopamine receptor) was over 100 µM and the Activity [4] was “Toxic”. The Activity [5] was “Non-toxic”, the Emax [6] was 103% and the Activity [7] was 6.65%. The Activity [8] was “Non-toxic”, the Kp at 6 h [9] was 4.22 and the Activity [10] was 4.53%. For the same compound, the IC50 (Cytochrome P450 2B6) was over 50 µM, the Activity [11] was “inactive” and the Activity [12] was “Non-toxic”. The Activity [13] was “Toxic”, the Activity [14] was “Non-toxic” and the Activity [15] was “Non-toxic”. The Activity [16] was “Non-toxic”, the Activity [17] was “Toxic” and the Activity [18] was “Non-toxic”. For the same compound, the Activity [19] was “Non-toxic”, the Activity [20] was “Non-toxic” and the Activity [21] was 1.76%. For the same compound, the Activity [22] was “Non-toxic”, the Activity [23] was “Non-toxic” and the Activity [24] was “Non-toxic”. For the same compound, the Activity [25] was “Non-toxic”, the Activity (Homo sapiens) was 1.26% and the Activity [26] was 3.89%. For the same compound, the IC50 (Cytochrome P450 1A2) was over 50 µM, the Activity [27] was “Non-toxic” and the EC50 [28] was 72.3 nM. For the same compound, the Activity [29] was “Non-toxic”, the Activity [30] was “Non-toxic” and the Activity [31] was “Non-toxic”. For the same compound, the Activity [32] was “Non-toxic” and the Activity [33] was “Non-toxic”.
